Test results from PMC5914092, “Evaluation of Aldose Reductase, Protein Glycation, and Antioxidant Inhibitory Activities of Bioactive Flavonoids in Matricaria recutita L. and Their Structure-Activity Relationship” (Journal of Diabetes Research, 2018).
“Also recorded” adds a separate entry of the source. Read-outs that look alike come from different tables or passages of the source. Marks after values point to notes of the source that are not given here. Each block holds one molecule with its values, some of them ahead of it.

Experiments:
[1] = DPPH free radical scavenging capacity; settings: concentrations 15, 30, 75 μg/mL, mean ± RSD
Description: DPPH, a stable free radical, was used to determine the free radical-scavenging activity of the extracts. Briefly, a 0.32 mM DPPH solution in MeOH were prepared, and 180 μL of this solution was mixed with 30 μL of each sample at concentrations of 0.05–1.0 mg/mL in DMSO. After 20 min of incubation in the dark, the decrease in the absorbance of the solution was measured at 570 nm on a microplate reader (EL800 Universal Microplate reader, Bio-Tek instruments, Winooski, VT, USA). DPPH radical-scavenging activity was expressed as the percentage inhibition (%) of DPPH in this assay system and was calculated as (1 − B/A) × 100, where A and B are the activities of DPPH without and with the test material, respectively.

[2] = system: sorbitol accumulation in rat lens; assay: Lens culture and intracellular sorbitol measurement (ex vivo, high glucose); assay type: cell-based; settings: for Sorbitol content (mg)/lens wet weight (g): rat lens cultured 6 d in medium with 30 mM glucose, control by G 1.47 ± 0.02; for inhibition at 5 µg/mL: read-out: Inhibition (%) of sorbitol accumulation in rat lens
Description: Lens isolated from 10-week old Sprague-Dawley rats were cultured for 6 d in TC-199 medium containing 15% fetal bovine serum, 100 units/mL penicillin, and 0.1 mg/mL streptomycin, under sterile conditions and an atmosphere of 5% CO2 and 95% air at 37°C. Samples were dissolved in DMSO. The lens were divided into three groups (each group n = 3) and cultured in medium containing 30 mM glucose and RLAR-active compounds. Each lens was placed in a well containing 2.0 mL medium. Sorbitol was identified by HPLC after its derivatization by reaction with benzoic acid to form a fluorescent compound [25].

[3] = system: advanced glycation end products (AGEs); assay: Methylglyoxal-bovine serum albumin assay investigating AGE formation; assay type: biochemical; settings: methylglyoxal-BSA, 37°C 24 h, mean ± RSD
Description: Bovine serum albumin (50 mg/mL) was incubated with methylglyoxal (100 mM) in sodium phosphate buffer (0.1 M, pH 7.4) in the presence of various concentrations of the compounds (including a control) at 37°C for 24 h. Then the fluorescent intensity was measured at an excitation wavelength of 355 nm and an emission wavelength of 460 nm with a luminescence spectrometer LS50B (PerkinElmer Ltd., Buckinghamshire, England). […] All reagents and samples were sterilized by filtration through […] membrane filters.

[4] = molecular target: T1, rat lens aldose reductase (RLAR) (Rattus norvegicus, UniProt P07943); settings: cited from earlier work; for IC50: compounds isolated from other plant sources, read-out: RLAR inhibitory activity (reported data)
T1 construct: The supernatant was collected and used as RLAR; from tissue; host or cells: lens of Sprague-Dawley rats (supernatant of the homogenate after 10,000g)

[5] = molecular target: T1, rat lens aldose reductase (RLAR); assay: Determination of RLAR inhibition (NADPH absorbance decrease at 340 nm, DL-glyceraldehyde substrate); assay type: biochemical; settings: crude RLAR homogenate; inhibitor concentrations 1, 5, 10 μg/mL; mean ± RSD; NI: no inhibition
Description: Crude RLAR was prepared as follows: lenses were removed from Sprague-Dawley rats (weighing 250–280 g) and frozen at −70°C until use. Noncataractous transparent lenses were pooled and a homogenate was prepared in 0.1 M phosphate buffered saline (pH 6.2). The RLAR homogenate was then centrifuged at 10,000g for 20 min at 4°C in a refrigerated centrifuge. The supernatant was collected and used as RLAR [22].
A total of 531 μL of 0.1 M potassium buffer (pH 7.0), 90 μL of NADPH solution (1.6 mM in potassium buffer), 90 μL of RLAR homogenate (6.5 U/mg), 90 μL of ammonium sulfate solution (4 M in potassium buffer), and 90 μL of DL-glyceraldehyde (25 mM in potassium buffer) were mixed with 9 μL of different concentrations of samples (1–0.1 mg/mL in DMSO, less than 1% in total mixture) in a cuvette, and the activity of RLAR was assessed spectrophotometrically by measuring the decrease in NADPH absorbance at 340 nm for 3 minutes using a spectrophotometer (SECOMAM, Ales Cedex, France).

[6] = sample 5 μg/mL, mean ± SD (n = 3)
[7] = rat lens cultured in 30 mM glucose, sample 5 μg/mL, mean ± SD (n = 3)
[8] = concentrations 10, 25, 50 μg/mL, NI: no inhibition

Compound: O=C(C=Cc1ccc(O)c(O)c1)OC1CC(O)(C(=O)O)CC(OC(=O)C=Cc2ccc(O)c(O)c2)C1O (stereo not drawn) [Compound 7, 3,5-O-di-caffeoylquinic acid]
inhibition at 5 µg/mL ([2]; Rattus norvegicus): 86.4 ± 4.28% | Sorbitol content (mg)/lens wet weight (g) [2, 6]: 0.20 ± 0.01^a mg/g | IC50 [3, 8]: > 97 µM

Compound: O=c1cc(-c2ccc(O)c(O)c2)oc2cc(O)cc(O)c12 [Compound 10, luteolin]
Sorbitol content (mg)/lens wet weight (g) [2, 6]: 0.12 ± 0.01^a mg/g | inhibition at 5 µg/mL [2, 7]: 91.8 ± 6.87%

Compound: O=c1c(O)c(-c2ccc(O)c(O)c2)oc2cc(O)cc(O)c12 [Quercetin, quercetin, reference compound]
Sorbitol content (mg)/lens wet weight (g) [2, 6]: 0.21 ± 0.01^a mg/g | inhibition at 5 µg/mL [2, 7]: 85.7 ± 3.23%

Compound: O=c1cc(-c2ccc(O)c(O)c2)oc2cc(O)cc(O[C@@H]3O[C@H](CO)[C@@H](O)[C@H](O)[C@H]3O)c12 [luteolin-5-O-β-D-glucopyranoside, reference compound]
Inhibitory activity on RLAR relative to its precursor (luteolin) ([4]; isolated from Cirsium maackii): ~1.58 times

Compound: O=C(O)[C@H]1O[C@@H](Oc2cc(O)c3c(=O)cc(-c4ccc(O)c(O)c4)oc3c2)[C@H](O)[C@@H](O)[C@@H]1O [Compound 6, luteolin-7-O-β-D-glucuronide]
Sorbitol content (mg)/lens wet weight (g) [2, 6]: 0.12 ± 0.01^a mg/g | inhibition at 5 µg/mL [2, 7]: 91.8 ± 6.74%

Compound: O=c1cc(-c2ccc(O)cc2)oc2cc(O[C@@H]3O[C@H](CO)[C@@H](O)[C@H](O)[C@H]3O)cc(O)c12 [Compound 1, apigenin-7-O-β-D-glucoside]
Sorbitol content (mg)/lens wet weight (g) [2, 6]: 0.72 ± 0.01^c mg/g | inhibition at 5 µg/mL [2, 7]: 51 ± 1.68% | IC50 [3, 8]: > 97 µM | IC50 ([1]; NI: no inhibition): > 250 µM | IC50 [4]: 23 µM

Compound: N=C(N)NN [Aminoguanidine, aminoguanidine, reference compound]
IC50 AGEs ([3]; concentrations 20, 100, 200 μg/mL): 109.10 ± 3.47^a μg/mL

Continued, in another order:

IC50 DPPH ([1]; three independent experiments in duplicate): 6.60 ± 0.33^a μg/mL
Compound: O=C1O[C@H]([C@@H](O)CO)C(O)=C1O [L-Ascorbic acid, reference compound]

IC50 [3, 8]: > 97 µM
Compound: O=c1cc(-c2ccc(O)c(O)c2)oc2cc(O[C@@H]3O[C@H](CO)[C@@H](O)[C@H](O)[C@H]3O)cc(O)c12 [Compound 2, luteolin-7-O-β-D-glucoside]
Sorbitol content (mg)/lens wet weight (g) [2, 6]: 0.07 ± 0.01^a mg/g | inhibition at 5 µg/mL [2, 7]: 95.2 ± 8.18% | IC50 [4]: 0.99 µM

IC50 [3, 8]: > 97 µM
Compound: O=C(O)[C@H]1O[C@@H](Oc2cc(O)c3c(=O)cc(-c4ccc(O)cc4)oc3c2)[C@H](O)[C@@H](O)[C@@H]1O [Compound 5, apigenin-7-O-β-D-glucuronide]
Sorbitol content (mg)/lens wet weight (g) [2, 6]: 0.29 ± 0.01^b mg/g | inhibition at 5 µg/mL [2, 7]: 80.3 ± 2.78%

IC50 [5]: > 28 µM | IC50 [3, 8]: > 97 µM | IC50 AGEs [3, 8]: did not show inhibitory activities | IC50 ([1]; NI: no inhibition): > 208 µM | IC50 DPPH ([1]; NI: no inhibition): almost no effect
Compound: COc1cc2oc(-c3ccc(O)cc3)c(OC)c(=O)c2c(O)c1OC [Compound 3, penduletin]
IC50 RLAR [5]: inactive; also recorded: did not show inhibitory activities

IC50 [5]: > 28 µM | IC50 [3, 8]: > 97 µM | IC50 AGEs [3, 8]: did not show inhibitory activities | IC50 ([1]; NI: no inhibition): > 208 µM | IC50 DPPH ([1]; NI: no inhibition): almost no effect
Compound: O=c1cc(-c2ccc(O)cc2)oc2cc(O)c(O)c(O)c12 [Compound 8, 6-hydroxyapigenin]
IC50 RLAR [5]: inactive; also recorded: did not show inhibitory activities

IC50 [3, 8]: > 97 µM
Compound: O=c1cc(-c2ccc(O)cc2)oc2cc(O)cc(O)c12 [Compound 9, apigenin]
Sorbitol content (mg)/lens wet weight (g) [2, 6]: 0.19 ± 0.01^a mg/g | inhibition at 5 µg/mL [2, 7]: 87.1 ± 4.48%
